Test results taken from ChEMBL document CHEMBL5712891, “Inhibition of BET bromodomain-dependent XIAP and FLIP expression sensitizes KRAS-mutated NSCLC to pro-apoptotic agents” (Cell Death Dis, 2016).
Calls of active or inactive are those of the source. No cut-off for these calls is given here.

How the values were obtained:
DV-90 [1] = assay: Induction of cell cycle arrest in human DV-90 cells assessed as accumulation of cells at G0/G1 phase at 0.25 uM for 24 hrs by Click-iT EdU Alexa Fluor 647 flow cytometric assay kit analysis (reference value: 47%); type: functional
DV-90 [2] = assay: Induction of cell cycle arrest in human DV-90 cells assessed as accumulation of cells at G2/M phase at 1 uM for 24 hrs by Click-iT EdU Alexa Fluor 647 flow cytometric assay kit analysis (reference value: 21%); type: functional
NCI-H1373 [3] = assay: Induction of apoptosis in human NCI-H1373 cells assessed as early apoptotic cells at 2.5 uM for 24 hrs by annexin V-PI staining based flow cytometric analysis (reference value: 1.7%); type: functional
DV-90 [4] = assay: Induction of apoptosis in human DV-90 cells assessed as early apoptotic cells at 2.5 uM for 48 hrs by annexin V-PI staining based flow cytometric analysis (reference value: 1.0%)
NCI-H1373 [5] = assay: Induction of cell cycle arrest in human NCI-H1373 cells assessed as accumulation of cells at G0/G1 phase at 0.1 uM for 24 hrs by Click-iT EdU Alexa Fluor 647 flow cytometric assay kit analysis (reference value: 48%); type: functional
DV-90 [6] = assay: Induction of cell cycle arrest in human DV-90 cells assessed as accumulation of cells at S phase at 1 uM for 24 hrs by Click-iT EdU Alexa Fluor 647 flow cytometric assay kit analysis (reference value: 30%); type: functional
NCI-H1373 [7] = assay: Downregulation of c-MYC protein expression level in human NCI-H1373 cells at 1 uM for 24 hrs by […] analysis; type: functional, cell-based
NCI-H1373 [8] = assay: Induction of cell cycle arrest in human NCI-H1373 cells assessed as accumulation of cells at G2/M phase at 0.5 uM for 24 hrs by Click-iT EdU Alexa Fluor 647 flow cytometric assay kit analysis (reference value: 13%); type: functional
A549 [9] = assay: Induction of apoptosis in human A549 cells assessed as late apoptotic cells at 0.5 uM for 24 hrs by annexin V-PI staining based flow cytometric analysis (reference value: 2.3%); type: functional
NCI-H23 [10] = assay: Downregulation of FLIP mRNA expression level in human NCI-H23 cells at 0.1 to 1 uM for 24 hrs by qRT-PCR analysis; type: functional, cell-based; conditions: dose 0.1-1 µM
DV-90 [11] = assay: Downregulation of C-MYC mRNA expression level in human DV-90 cells at 0.1 to 1 uM for 24 hrs by qRT-PCR analysis; type: functional, cell-based; conditions: dose 0.1-1 µM
NCI-H441 = assay: Downregulation of c-MYC protein expression level in human NCI-H441 cells at 1 uM for 24 hrs by […] analysis; type: functional, cell-based
NCI-H23 [12] = assay: Downregulation of XIAP mRNA expression level in human NCI-H23 cells at 0.1 to 1 uM for 24 hrs by qRT-PCR analysis; type: functional, cell-based; conditions: dose 0.1-1 µM
A549 [13] = assay: Induction of apoptosis in human A549 cells assessed as early apoptotic cells at 0.5 uM for 24 hrs by annexin V-PI staining based flow cytometric analysis (reference value: 0.4%); type: functional
A549 [14] = assay: Induction of apoptosis in human A549 cells assessed as late apoptotic cells at 2.5 uM for 24 hrs by annexin V-PI staining based flow cytometric analysis (reference value: 2.3%); type: functional
A549 [15] = assay: Induction of cell cycle arrest in human A549 cells assessed as accumulation of cells at S phase at 0.1 uM for 24 hrs by Click-iT EdU Alexa Fluor 647 flow cytometric assay kit analysis (reference value: 35%); type: functional
LCLC-97TM1 [16] = assay: Downregulation of XIAP mRNA expression level in human LCLC-97TM1 cells at 0.1 to 1 uM for 24 hrs by qRT-PCR analysis; type: functional, cell-based; conditions: dose 0.1-1 µM
A549 [17] = assay: Induction of cell cycle arrest in human A549 cells assessed as accumulation of cells at G2/M phase at 1 uM for 24 hrs by Click-iT EdU Alexa Fluor 647 flow cytometric assay kit analysis (reference value: 3%); type: functional
A549 [18] = assay: Induction of apoptosis in human A549 cells assessed as necrotic cells at 0.5 uM for 24 hrs by annexin V-PI staining based flow cytometric analysis (reference value: 1.3%); type: functional
NCI-H1373 [19] = assay: Induction of TRAIL dependent apoptosis in human NCI-H1373 cells by annexin V-PI staining based flow cytometric analysis; type: functional, cell-based
A549 [20] = assay: Downregulation of XIAP mRNA expression level in human A549 cells at 0.1 to 1 uM for 24 hrs by qRT-PCR analysis; type: functional, cell-based; conditions: dose 0.1-1 µM
A549 [21] = assay: Induction of apoptosis in human A549 cells assessed as early apoptotic cells at 2.5 uM for 24 hrs by annexin V-PI staining based flow cytometric analysis (reference value: 0.4%); type: functional
NCI-H1373 [22] = assay: Induction of cell cycle arrest in human NCI-H1373 cells assessed as accumulation of cells at S phase at 1 uM for 24 hrs by Click-iT EdU Alexa Fluor 647 flow cytometric assay kit analysis (reference value: 45%); type: functional
A549 [23] = assay: Induction of apoptosis in human A549 cells assessed as early apoptotic cells at 1 uM in presence of cisplatin by annexin V-PI based flow cytometric analysis (reference value: 0.2%); type: functional
DV-90 [24] = assay: Downregulation of FLIP gene in human DV-90 cells after 24 hrs by microarray profiling analysis; type: functional, cell-based
NCI-H358 = assay: Downregulation of XIAP protein expression level in human NCI-H358 cells at 1 uM for 24 hrs by […] analysis; type: functional, cell-based
SK-LU-1 = assay: Downregulation of c-MYC mRNA expression level in human SK-LU-1 cells at 0.1 to 1 uM for 24 hrs by qRT-PCR analysis; type: functional, cell-based; conditions: dose 0.1-1 µM
NCI-H460 [25] = assay: Downregulation of XIAP protein expression level in human NCI-H460 cells at 1 uM for 24 hrs by […] analysis; type: functional, cell-based
LCLC-97TM1 [26] = assay: Downregulation of c-MYC mRNA expression level in human LCLC-97TM1 cells at 0.1 to 1 uM for 24 hrs by qRT-PCR analysis; type: functional, cell-based; conditions: dose 0.1-1 µM
A549 [27] = assay: Downregulation of c-MYC protein level in human A549 cells at 100 to 5000 nM upto 24 hrs by Western blot analysis; type: functional, cell-based; conditions: dose 100-5000 nM
NCI-H23 [28] = assay: Downregulation of c-MYC protein expression level in human NCI-H23 cells at 1 uM for 24 hrs by […] analysis; type: functional, cell-based
NCI-H1373 [29] = assay: Induction of cell cycle arrest in human NCI-H1373 cells assessed as accumulation of cells at S phase at 0.1 uM for 24 hrs by Click-iT EdU Alexa Fluor 647 flow cytometric assay kit analysis (reference value: 45%); type: functional
HFF-1 = assay: Cytotoxicity against HFF-1 cells at 500 to 2500 nM in presence of TNF by cell titre glo assay; type: toxicity, cell-based; conditions: human, hff-1, 2.5 µM; dose 500-2500 nM
NCI-H460 [30] = assay: Downregulation of FLIP mRNA expression level in human NCI-H460 cells at 0.1 to 1 uM for 24 hrs by qRT-PCR analysis; type: functional, cell-based; conditions: dose 0.1-1 µM

Structure (SMILES): Cc1sc2c(c1C)C(c1ccc(Cl)cc1)=N[C@@H](CC(=O)Nc1ccc(O)cc1)c1nnc(C)n1-2 [BIRABRESIB]
- Activity (DV-90 [1]): 52%
- Activity (DV-90 [2]): 22%
- Activity (NCI-H1373 [3]): 1.8%
- Activity (DV-90 [4]): 2.6%

Structure (SMILES): CCNC(=O)C[C@@H]1N=C(c2ccc(Cl)cc2)c2cc(OC)ccc2-n2c(C)nnc21 [MOLIBRESIB]
- Activity (NCI-H1373 [5]): 47%
- Activity (DV-90 [6]): 22%

Structure (SMILES): Cc1sc2c(c1C)C(c1ccc(Cl)cc1)=N[C@@H](CC(=O)OC(C)(C)C)c1nnc(C)n1-2
- Activity (NCI-H1373 [7]): Active
- Activity (NCI-H1373 [8]): 22%
- Activity (A549 [9]): 1.5%
- Activity (NCI-H23 [10]): Active
- Activity (DV-90 [11]): Active
- Activity (NCI-H441): Active
- Activity (NCI-H23 [12]): Active
- Activity (A549 [13]): 0.1%
- Activity (A549 [14]): 1.8%
- Activity (A549 [15]): 36%
- Activity (LCLC-97TM1 [16]): Active
- Activity (A549 [17]): 4%
- Activity (A549 [18]): 1.2%
- Activity (NCI-H1373 [19]): Active
- Activity (A549 [20]): Active
- Activity (A549 [21]): 0.2%
- Activity (NCI-H1373 [22]): 7%
- Activity (A549 [23]): 2.2%
- Activity (DV-90 [24]): Active
- Activity (NCI-H358): Active
- Activity (SK-LU-1): Active
- Activity (NCI-H460 [25]): Active
- Activity (LCLC-97TM1 [26]): Active
- Activity (A549 [27]): inactive
- Activity (NCI-H23 [28]): Active
- Activity (NCI-H1373 [29]): 36%
- Activity (HFF-1): Non-Toxic
- Activity (NCI-H460 [30]): Active
